Results on nine molecules are retold here after publication PMC5943271, “Biosynthetic pathway for furanosteroid demethoxyviridin and identification of an unusual pregnane side-chain cleavage” (Nature Communications, 2018).

Read-outs that look alike come from different tables or passages of the source.

In one data set the target is PI3K gamma kinase (Homo sapiens, UniProt P48736). Description: In vitro PI3K gamma kinase assay (PI3-Kinase (human) HTRF Assay kit). It counts as biochemical. Conditions: for IC50: PI3K gamma, 10 μM PIP2, 10 μM ATP, room temperature 1 h, HTRF, two replicates, read-out: IC50 value, PI3K inhibitory activity. (Time-resolved FRET reads energy transfer from a long-lived donor to a nearby acceptor.)

On the set-up of data set [1]: method as in PMID 19523825. Conditions: cited from earlier work.
Another data set has as its system MCF-7 cells. Description: Cytotoxicity assay (CCK-8) against breast cancer cell line MCF-7. It counts as cell-based, human. Conditions: MCF-7, 40 μM, 48 h.
Experiment in data set [2]: as above
Description: (§1) The human breast cancer MCF-7 cell line (ATCC HTB-22) was used in the cytotoxicity assay. The cell line was cultured in DMEM (Gibco, Life Technologies, USA), supplemented with 10% fetal bovine serum (Gibco, Life Technologies, USA), in a 5% CO2 atmosphere at 37 °C. […] After a treatment with 40 μM of each compound (Dissolved with DMSO) for 48 h, the CCK-8 solution (10 μL) was added to each well and incubated for 2 h at 37 °C. The absorbance (Ab) of samples was detected at 450 nm using a microtiter plate reader (TriStar LB941, Berthold Technologies, Germany).
It counts as cell-based, human. The settings on record: human, MCF-7 breast cancer cells (ATCC HTB-22), MCF-7, 48 h.

PI3K gamma kinase, sequence (P48736 whole entry): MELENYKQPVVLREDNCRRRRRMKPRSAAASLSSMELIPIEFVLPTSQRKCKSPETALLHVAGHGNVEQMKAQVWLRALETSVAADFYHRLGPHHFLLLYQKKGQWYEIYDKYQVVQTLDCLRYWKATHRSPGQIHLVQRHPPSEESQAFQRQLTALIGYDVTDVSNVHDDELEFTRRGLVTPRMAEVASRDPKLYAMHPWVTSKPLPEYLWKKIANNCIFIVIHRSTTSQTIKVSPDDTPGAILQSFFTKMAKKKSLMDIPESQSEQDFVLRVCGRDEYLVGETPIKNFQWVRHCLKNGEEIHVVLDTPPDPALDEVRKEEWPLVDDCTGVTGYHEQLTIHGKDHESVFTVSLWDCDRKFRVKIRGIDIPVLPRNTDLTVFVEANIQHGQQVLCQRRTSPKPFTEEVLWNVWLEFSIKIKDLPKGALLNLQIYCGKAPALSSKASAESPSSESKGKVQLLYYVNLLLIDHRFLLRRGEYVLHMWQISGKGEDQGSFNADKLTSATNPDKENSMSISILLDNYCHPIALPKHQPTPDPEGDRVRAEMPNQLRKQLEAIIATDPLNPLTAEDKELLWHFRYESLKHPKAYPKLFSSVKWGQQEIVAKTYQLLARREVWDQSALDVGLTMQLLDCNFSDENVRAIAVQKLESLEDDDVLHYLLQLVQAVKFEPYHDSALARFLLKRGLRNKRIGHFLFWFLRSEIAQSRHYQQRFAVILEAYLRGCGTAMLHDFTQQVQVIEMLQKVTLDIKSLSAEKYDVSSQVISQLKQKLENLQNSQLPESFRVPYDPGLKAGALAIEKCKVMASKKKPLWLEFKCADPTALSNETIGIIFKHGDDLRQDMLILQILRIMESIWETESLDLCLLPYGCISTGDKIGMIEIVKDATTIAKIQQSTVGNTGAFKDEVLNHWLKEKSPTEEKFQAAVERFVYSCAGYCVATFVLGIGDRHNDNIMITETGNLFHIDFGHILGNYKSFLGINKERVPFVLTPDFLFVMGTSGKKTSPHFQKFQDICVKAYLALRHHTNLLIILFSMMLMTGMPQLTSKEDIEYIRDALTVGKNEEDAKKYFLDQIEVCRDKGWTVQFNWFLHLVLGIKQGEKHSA
Description for MCF-7 cells: as §1
Description for PI3K gamma kinase: The in vitro PI3K gamma kinase assay was carried out using a PI3-Kinase (human) HTRF^TM Assay kit (Millipore, USA) according to the manufacturer’s protocol. Briefly, the PI3K gamma kinase was incubated with 10 μM sample (tested compounds) in the reaction buffer containing 10 μM PIP2 in the wells of a 384-well opaque black plate (PerkinElmer, USA) at room temperature. Kinase reactions were initiated by adding 10 μM ATP and incubating the plate at room temperature for 1 h. The reactions were quenched by adding 5 μL of Stop Solution (containing EDTA and biotin-PIP3), and then the detection buffer (containing the Europium-labeled anti-GST antibody, the GST-tagged receptor of the phosphoinositide (GRP1) PH domain, and streptavidin–APC) was added to each well. Following 2 h incubation in the dark, the HTRF signal was measured with a 2104 EnVision® Multilabel Reader (PerkinElmer, USA) in the time-resolved fluorescence mode, set for excitation at 320 nm and dual emission detection at 615 nm (Eu) and 665 nm (APC). The emission ratio (ER) of 665 nm emission signal to 615 nm emission signal was then calculated and the inhibition ratio of a certain sample on PI3K was calculated according to the following formula: PI3K inhibition (%) = (ERsample − ER0%)/(ER100% − ER0%) × 100%. ER0% means 0% inhibition, which was calculated from the reaction of PI3K, PIP2, and ATP in the absence of sample.

Consider `C[C@@]12c3ccc4c(c3C(=O)c3occ(c31)C(=O)C[C@H]2O)CCC4=O` [Compound 1, demethoxyviridin], for which the IC50 at PI3K gamma kinase turned out to be 6.6 nM. For the same molecule, the “stability in PBS and culture media (in words)” value in data set [1] is on record as “instability”. Also, the “cytotoxicity against MCF-7 (in words)” value with MCF-7 cells is reported as “moderate cytotoxicity”.
With `C[C@]12CCC(=O)c3coc(c31)C(=O)c1c2ccc2c1CCC2=O` [Compound 3, dehydroxydemethoxyviridin], the IC50 on PI3K gamma kinase was 167 nM.
Consider `C[C@]12CCC3=C(C(=O)c4occ5c4[C@]3(C)CCC5=O)[C@@H]1CC[C@@H]2O` [Compound 7, (6bR,9S,9aS,11bR)-9-hydroxy-9a,11b-dimethyl-1,2,6b,7,8,9,9a,10,11,11b-decahydrocyclopenta[7,8]phenanthro[10,1-bc]furan-3,6-dione], for which, at PI3K gamma kinase, the IC50 is 42.7 nM. Further, the IC50 at 48 h in data set [2] (read-out: IC50 value, cytotoxicity against MCF-7) was 15000 nM.
With `C[C@@]12c3ccc4c(c3C(=O)c3occ(c31)[C@@H](O)C[C@H]2O)CCC4=O` [Compound 2, demethoxyviridiol], at PI3K gamma kinase, the IC50 is 1070 nM. Further, in data set [2] (three replicates, read-out: IC50 value, cytotoxicity against MCF-7 (Supplementary Figure 9b)), the IC50 at 48 h was found to be 37300 nM.
Turning to `CC(=O)O[C@H]1CC[C@H]2C3=C(CC[C@]12C)[C@@]1(C)CC[C@H](O)c2coc(c21)C3=O` [Compound 9, (3S,6bR,9S,9aS,11bR)-3-hydroxy-9a,11b-dimethyl-6-oxo-1,2,3,6,6b,7,8,9,9a,10,11,11b-dodecahydrocyclopenta[7,8]phenanthro[10,1-bc]furan-9-yl acetate], the “inhibitory effect on PI3K (in words)” value at PI3K gamma kinase (10 μM sample, Fig. 8a) is “abolishes the activity”.
Molecule `CC(=O)[C@H]1CC[C@H]2C3=C(CC[C@]12C)[C@@]1(C)CC[C@H](O)C2=C1[C@@](O)(OC2)C3=O` came in with a melting point of 218.2 to 221.7 °C.
Still for that read-out and setting: for `C[C@]12CCC3=C(C(=O)c4occ5c4[C@]3(C)CC[C@@H]5O)[C@@H]1CC[C@@H]2O` the value was 187.1 to 189.6 °C; for `C[C@]12CC[C@H](O)c3coc(c31)C(=O)C1=C2C=C[C@]2(C)C(=O)CC[C@@H]12`, 236.4 to 238.7 °C.
As to `CC(=O)[C@H]1CC[C@H]2C3=C(CC[C@]12C)[C@@]1(C)CCC(=O)c2coc(c21)C3=O` [Compound 10, virone], the IC50 on PI3K gamma kinase is 2250 nM.

As a reminder, the IC50 is the concentration that inhibits the measured activity by half. In general, melting point refers to the temperature of the solid-liquid transition.
